Source: patent publication US9617267B2, “Compounds and methods for kinase modulation, and indications therefor” (Plexxikon Inc., priority 2009, dated 2017)
Read-outs that look alike come from different tables or passages of the source.

What was measured:
[1] = molecular target: B-Raf (Homo sapiens (Human), UniProt P15056); assay: B-Raf kinase activity biochemical assay (AlphaScreen, biotin-MEK1 phosphorylation); conditions: B-Raf
Outline: (§1)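 Compounds from a 0.1 mM DMSO stock were tested at 8 serially diluted points. Kinase reactions with 100 μM ATP (final) ran 45 min at room temperature, then were stopped with EDTA buffer containing anti-phospho-MEK1/2 antibody plus streptavidin donor and protein A acceptor beads.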

[2] = test system: B-Raf; assay: as above; conditions: for Biochemical activity ratio B/V600E: ratio of IC50 B-Raf / B-Raf V600E; for Biochemical activity ratio B/C: ratio of IC50 B-Raf / c-Raf-1
Outline: as §1

[3] = molecular target: B-Raf V600E (Homo sapiens (Human), UniProt P15056, V600E); assay: B-Raf V600E kinase activity biochemical assay (AlphaScreen, biotin-MEK1 phosphorylation); conditions: for IC50: B-Raf V600E; for Biochemical activity ratio V600E/C: ratio of IC50 B-Raf V600E / c-Raf-1
Outline: as §1

[4] = molecular target: c-Raf-1 (Homo sapiens, UniProt P04049); assay: c-Raf-1 kinase activity biochemical assay (AlphaScreen, biotin-MEK1 phosphorylation)
Outline: as §1

[5] = Relative solubility by turbidity threshold concentration in aqueous buffers (pH 1.5, 4.5, 6.8, 7.4); assay type: physicochemical; conditions: for turbidity threshold (L, M, H) 1.4: pH 1.4 [sic] (method: SGF pH 1.5); for turbidity threshold (L, M, H) 4.5: pH 4.5 (SIF); for turbidity threshold (L, M, H) 6.8: pH 6.8 (SIF); for turbidity threshold (L, M, H) 7.4: pH 7.4 (HEPES)
Outline: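 Solubility class (high >250 μM, moderate 31.3–250 μM, low <31.3 μM) comes from the concentration where absorbance reaches a 0.01 threshold, averaged across 490/535/650 nm. Samples were compound dilutions from DMSO stock, 1 μL into 99 μL buffer at pH 1.5, 4.5, 6.8 or 7.4.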

[6] = molecular target: CYP1A2 (Homo sapiens (Human), UniProt P05177); assay: CYP enzyme inhibition, fluorescent substrate (CEC)
Outline: (§2)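 IC50 derived from loss of fluorescent metabolite across a 10-point 1:1 dilution series. CYP2D6: 1.5 pmol enzyme, 1.5 μM AMMC, 30 min at 37 °C, 409/530 nm; CYP1A2: 0.5 pmol, 5 μM CEC, 15 min, 409/460 nm. Compounds pre-incubated 10 min in NADPH-regenerating mix.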

[7] = molecular target: CYP2C19 (Homo sapiens (Human), UniProt P33261); assay: CYP enzyme inhibition, fluorescent substrate (CEC)
Outline: (§3)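 First, 100 mM DMSO stocks are diluted into acetonitrile, then twofold through co-factor mix for 10 points. Next, mixtures are preincubated 10 min at 37 °C.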

[8] = molecular target: CYP2C9 (Homo sapiens (Human), UniProt P11712); assay: CYP enzyme inhibition, fluorescent substrate (MFC)
Outline: as §3

[9] = molecular target: CYP2D6 (Homo sapiens (Human), UniProt P10635); assay: CYP enzyme inhibition, fluorescent substrate (AMMC); assay type: in vitro ADME; conditions: read-out: Cyp IC50 2D6
Outline: as §2

[10] = molecular target: CYP3A4(BFC) (Homo sapiens (Human), UniProt P08684); assay: CYP enzyme inhibition, fluorescent substrate BFC; conditions: read-out: Cyp IC50 3A4(BFC); CYP3A4, substrate BFC
Outline: as §3

[11] = molecular target: CYP3A4(BQ) (Homo sapiens (Human), UniProt P08684); assay: CYP enzyme inhibition, fluorescent substrate BQ; conditions: read-out: Cyp IC50 3A4(BQ); CYP3A4, substrate BQ
Outline: as §3

[12] = read-out: Cyp IC50 2C9, CYP2C9, substrate MFC

Chain of CYP1A2 (P05177 whole entry): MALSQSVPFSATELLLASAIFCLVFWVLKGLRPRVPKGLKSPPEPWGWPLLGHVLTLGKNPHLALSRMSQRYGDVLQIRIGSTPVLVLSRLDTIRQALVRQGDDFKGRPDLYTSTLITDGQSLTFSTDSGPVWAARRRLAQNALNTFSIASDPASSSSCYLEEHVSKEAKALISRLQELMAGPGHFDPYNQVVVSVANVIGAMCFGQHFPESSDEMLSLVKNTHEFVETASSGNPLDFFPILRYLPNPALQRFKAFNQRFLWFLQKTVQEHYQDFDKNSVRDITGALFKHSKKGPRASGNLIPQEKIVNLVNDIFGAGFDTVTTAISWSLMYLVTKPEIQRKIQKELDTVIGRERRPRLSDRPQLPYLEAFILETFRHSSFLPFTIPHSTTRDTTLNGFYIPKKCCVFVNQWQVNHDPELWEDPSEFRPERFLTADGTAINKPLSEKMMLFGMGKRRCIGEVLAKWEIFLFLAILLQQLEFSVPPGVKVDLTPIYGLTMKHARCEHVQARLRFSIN
Chain of CYP3A4(BQ) (P08684 whole entry): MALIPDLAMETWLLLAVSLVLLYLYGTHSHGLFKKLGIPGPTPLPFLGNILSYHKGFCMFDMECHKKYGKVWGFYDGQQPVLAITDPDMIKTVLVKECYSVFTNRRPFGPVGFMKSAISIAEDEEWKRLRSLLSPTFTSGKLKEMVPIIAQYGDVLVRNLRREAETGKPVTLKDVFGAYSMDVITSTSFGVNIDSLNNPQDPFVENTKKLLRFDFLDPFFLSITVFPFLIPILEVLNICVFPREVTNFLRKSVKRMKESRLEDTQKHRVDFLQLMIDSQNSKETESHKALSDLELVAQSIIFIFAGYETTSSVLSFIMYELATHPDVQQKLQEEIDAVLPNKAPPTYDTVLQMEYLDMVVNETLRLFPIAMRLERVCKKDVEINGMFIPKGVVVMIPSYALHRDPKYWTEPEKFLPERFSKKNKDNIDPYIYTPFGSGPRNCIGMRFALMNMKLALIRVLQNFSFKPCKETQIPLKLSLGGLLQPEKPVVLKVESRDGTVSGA
Chain of CYP3A4(BFC) (P08684 whole entry): as above
Chain of CYP2C19 (P33261 whole entry): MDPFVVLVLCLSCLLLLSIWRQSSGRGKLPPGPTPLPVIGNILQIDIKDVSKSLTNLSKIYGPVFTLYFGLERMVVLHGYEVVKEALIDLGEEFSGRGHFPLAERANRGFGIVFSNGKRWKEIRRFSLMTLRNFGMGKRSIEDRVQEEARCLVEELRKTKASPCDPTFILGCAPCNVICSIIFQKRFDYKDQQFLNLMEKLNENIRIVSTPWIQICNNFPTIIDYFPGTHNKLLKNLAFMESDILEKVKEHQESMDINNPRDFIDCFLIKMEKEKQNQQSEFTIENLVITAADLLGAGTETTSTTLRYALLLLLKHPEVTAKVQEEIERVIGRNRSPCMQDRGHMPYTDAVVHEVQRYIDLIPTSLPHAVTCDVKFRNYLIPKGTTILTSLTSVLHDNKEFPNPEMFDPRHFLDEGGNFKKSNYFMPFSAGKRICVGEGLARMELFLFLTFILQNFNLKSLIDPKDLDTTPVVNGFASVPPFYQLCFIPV
Chain of c-Raf-1 (P04049 whole entry, looked up): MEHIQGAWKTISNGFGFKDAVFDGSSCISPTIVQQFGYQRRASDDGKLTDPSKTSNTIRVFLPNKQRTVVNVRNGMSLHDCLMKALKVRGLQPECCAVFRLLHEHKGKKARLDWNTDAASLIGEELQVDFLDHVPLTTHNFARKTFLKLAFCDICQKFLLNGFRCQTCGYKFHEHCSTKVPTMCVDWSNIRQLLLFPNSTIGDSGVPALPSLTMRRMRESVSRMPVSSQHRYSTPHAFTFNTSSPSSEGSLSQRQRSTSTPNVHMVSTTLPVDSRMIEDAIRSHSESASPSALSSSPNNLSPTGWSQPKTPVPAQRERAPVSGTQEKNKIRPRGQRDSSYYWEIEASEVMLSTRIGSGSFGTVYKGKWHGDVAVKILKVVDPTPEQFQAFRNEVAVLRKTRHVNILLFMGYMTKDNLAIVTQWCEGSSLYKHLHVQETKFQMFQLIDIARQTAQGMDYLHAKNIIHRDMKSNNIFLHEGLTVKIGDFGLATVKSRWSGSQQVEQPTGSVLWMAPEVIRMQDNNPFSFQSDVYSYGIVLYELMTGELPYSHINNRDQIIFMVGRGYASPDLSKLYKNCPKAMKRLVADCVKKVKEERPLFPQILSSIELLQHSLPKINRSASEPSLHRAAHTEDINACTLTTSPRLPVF
Chain of B-Raf V600E (P15056 whole entry V600E): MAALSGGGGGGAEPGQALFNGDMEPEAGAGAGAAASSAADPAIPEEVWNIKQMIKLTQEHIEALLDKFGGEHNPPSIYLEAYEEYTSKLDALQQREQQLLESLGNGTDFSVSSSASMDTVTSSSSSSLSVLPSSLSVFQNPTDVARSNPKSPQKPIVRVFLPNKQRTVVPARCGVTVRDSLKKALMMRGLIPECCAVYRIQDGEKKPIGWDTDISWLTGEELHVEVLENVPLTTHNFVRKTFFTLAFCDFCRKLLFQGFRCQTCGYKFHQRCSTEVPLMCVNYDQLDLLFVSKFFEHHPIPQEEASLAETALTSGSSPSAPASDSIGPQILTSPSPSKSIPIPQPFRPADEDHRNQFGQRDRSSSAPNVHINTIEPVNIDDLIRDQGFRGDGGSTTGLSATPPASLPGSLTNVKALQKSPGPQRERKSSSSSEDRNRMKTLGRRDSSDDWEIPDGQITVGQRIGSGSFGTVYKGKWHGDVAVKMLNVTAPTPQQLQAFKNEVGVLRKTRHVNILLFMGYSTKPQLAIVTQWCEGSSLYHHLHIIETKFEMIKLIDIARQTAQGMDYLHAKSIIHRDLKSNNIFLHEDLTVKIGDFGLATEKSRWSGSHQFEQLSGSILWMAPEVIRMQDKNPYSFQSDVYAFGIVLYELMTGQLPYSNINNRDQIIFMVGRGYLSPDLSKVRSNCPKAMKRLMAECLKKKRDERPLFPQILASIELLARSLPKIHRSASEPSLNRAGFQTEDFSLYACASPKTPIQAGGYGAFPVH
Chain of CYP2D6 (P10635 whole entry): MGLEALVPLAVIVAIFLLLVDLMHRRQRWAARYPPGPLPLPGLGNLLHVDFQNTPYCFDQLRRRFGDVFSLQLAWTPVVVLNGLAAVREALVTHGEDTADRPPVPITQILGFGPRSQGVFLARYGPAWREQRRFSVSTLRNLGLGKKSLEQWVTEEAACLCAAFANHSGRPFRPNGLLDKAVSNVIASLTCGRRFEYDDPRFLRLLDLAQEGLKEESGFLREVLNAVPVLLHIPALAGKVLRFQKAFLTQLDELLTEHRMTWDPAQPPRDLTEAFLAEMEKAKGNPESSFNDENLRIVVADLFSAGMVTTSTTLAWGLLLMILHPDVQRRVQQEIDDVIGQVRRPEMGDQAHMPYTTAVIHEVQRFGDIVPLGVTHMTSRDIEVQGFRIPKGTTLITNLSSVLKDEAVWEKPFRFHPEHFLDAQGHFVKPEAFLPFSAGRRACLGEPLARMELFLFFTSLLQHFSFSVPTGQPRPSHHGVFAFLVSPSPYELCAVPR
Chain of B-Raf (Homo sapiens (Human), UniProt P15056) (P15056 whole entry): as the sequence (P15056 whole entry V600E) above, with E600V counted along it
Chain of CYP2C9 (P11712 whole entry): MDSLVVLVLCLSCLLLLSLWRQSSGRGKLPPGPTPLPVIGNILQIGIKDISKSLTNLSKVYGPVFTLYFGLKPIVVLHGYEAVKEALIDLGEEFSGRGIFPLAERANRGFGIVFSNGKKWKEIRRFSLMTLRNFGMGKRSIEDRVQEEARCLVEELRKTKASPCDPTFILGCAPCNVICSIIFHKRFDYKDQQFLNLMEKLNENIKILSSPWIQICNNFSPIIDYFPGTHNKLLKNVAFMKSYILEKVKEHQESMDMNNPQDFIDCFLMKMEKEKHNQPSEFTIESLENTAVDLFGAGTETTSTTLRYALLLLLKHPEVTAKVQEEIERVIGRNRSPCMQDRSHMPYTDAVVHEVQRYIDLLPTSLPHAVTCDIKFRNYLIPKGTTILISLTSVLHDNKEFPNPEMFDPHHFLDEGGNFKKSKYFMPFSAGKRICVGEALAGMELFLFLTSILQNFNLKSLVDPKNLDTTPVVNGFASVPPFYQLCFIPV

In the case of `CCc1ccc(S(=O)(=O)Nc2ccc(F)c(C(=O)c3c[nH]c4ncnc(OC)c34)c2F)cc1` [P-1008, N-[2,4-Difluoro-3-(4-methoxy-7H-pyrrolo[2,3-d]pyrimidine-5-carbonyl)-phenyl]-4-ethyl-benzenesulfonamide], the IC50 [1] is reported as > 0.1 µM, the “Biochemical activity ratio B/V600E” value [2] is reported as 0.1-10 and the “Biochemical activity ratio B/C” value [2] is reported as 0.1-10. The IC50 [3] was > 0.1 µM, the “Biochemical activity ratio V600E/C” value [3] was 0.1-10 and the IC50 [4] was > 0.1 µM. The “turbidity threshold (L, M, H) 1.4” value [5] was “M (moderate solubility if the threshold concentration is 31.3 μM to 250 μM)”, the “turbidity threshold (L, M, H) 4.5” value [5] was “M (moderate solubility if the threshold concentration is 31.3 μM to 250 μM)” and the “turbidity threshold (L, M, H) 6.8” value [5] was “L (low solubility if the threshold concentration is <31.3 μM)”. The “turbidity threshold (L, M, H) 7.4” value [5] was “M (moderate solubility if the threshold concentration is 31.3 μM to 250 μM)”, the IC50 ([6]; human, 15 min) was > 10 µM and the IC50 ([7]; read-out: Cyp IC50 2C19, CYP2C19, substrate CEC) was > 10 µM. For the same compound, the IC50 [8] was 5 to 10 µM, the IC50 [9] was > 10 µM and the IC50 [10] was > 10 µM. The IC50 [11] was > 10 µM.

In the case of `Cc1ncnc2[nH]cc(C(=O)c3c(F)ccc(NS(=O)(=O)c4ccc(C(C)C)cc4)c3F)c12` [P-1009, N-[2,4-Difluoro-3-(4-methyl-7H-pyrrolo[2,3-d]pyrimidine-5-carbonyl)-phenyl]-4-isopropyl-benzenesulfonamide], the IC50 [1] is reported as > 0.1 µM, the “Biochemical activity ratio B/V600E” value [2] is reported as 0.1-10 and the “Biochemical activity ratio B/C” value [2] is reported as >10. For the same compound, the IC50 [3] was > 0.1 µM, the “Biochemical activity ratio V600E/C” value [3] was >10 and the IC50 [4] was < 0.1 µM. The “turbidity threshold (L, M, H) 1.4” value [5] was “H (high solubility if the threshold concentration is >250 μm)”, the “turbidity threshold (L, M, H) 4.5” value [5] was “L (low solubility if the threshold concentration is <31.3 μM)” and the “turbidity threshold (L, M, H) 6.8” value [5] was “L (low solubility if the threshold concentration is <31.3 μM)”. For the same compound, the “turbidity threshold (L, M, H) 7.4” value [5] was “M (moderate solubility if the threshold concentration is 31.3 μM to 250 μM)”, the IC50 ([6]; human, 15 min) was > 10 µM and the IC50 [7] was 5 to 10 µM. The IC50 [8, 12] was < 5 µM, the IC50 [9] was > 10 µM and the IC50 [10] was < 5 µM. For the same compound, the IC50 [11] was > 10 µM.

In the case of `COc1ncnc2[nH]cc(C(=O)c3c(F)ccc(NS(=O)(=O)c4ccc(C(C)C)cc4)c3F)c12` [P-1010, N-[2,4-Difluoro-3-(4-methoxy-7H-pyrrolo[2,3-d]pyrimidine-5-carbonyl)-phenyl]-4-isopropyl-benzenesulfonamide], the IC50 [1] is reported as > 0.1 µM, the “Biochemical activity ratio B/V600E” value [2] is reported as 0.1-10 and the “Biochemical activity ratio B/C” value [2] is reported as 0.1-10. For the same compound, the IC50 [3] was > 0.1 µM, the “Biochemical activity ratio V600E/C” value [3] was >10 and the IC50 [4] was > 0.1 µM. For the same compound, the “turbidity threshold (L, M, H) 1.4” value [5] was “L (low solubility if the threshold concentration is <31.3 μM)”, the “turbidity threshold (L, M, H) 4.5” value [5] was “L (low solubility if the threshold concentration is <31.3 μM)” and the “turbidity threshold (L, M, H) 6.8” value [5] was “L (low solubility if the threshold concentration is <31.3 μM)”. For the same compound, the “turbidity threshold (L, M, H) 7.4” value [5] was “M (moderate solubility if the threshold concentration is 31.3 μM to 250 μM)”, the IC50 ([6]; read-out: Cyp IC50 1A2, CYP1A2, substrate CEC) was > 10 µM and the IC50 [7] was 5 to 10 µM. The IC50 [8] was 5 to 10 µM, the IC50 [9] was > 10 µM and the IC50 [10] was > 10 µM. The IC50 [11] was > 10 µM.

With `O=C(c1c(F)ccc(NS(=O)(=O)c2ccc(C(F)(F)F)cc2)c1F)c1c[nH]c2ncnc(NC3CC3)c12` [P-1011, N-[3-(4-Cyclopropylamino-7H-pyrrolo[2,3-d]pyrimidine-5-carbonyl)-2,4-difluoro-phenyl]-4-trifluoromethyl-benzenesulfonamide] the IC50 [1] was < 0.1 µM, the “Biochemical activity ratio B/V600E” value [2] was 0.1-10 and the “Biochemical activity ratio B/C” value [2] was >10. For the same compound, the IC50 [3] was > 0.1 µM, the “Biochemical activity ratio V600E/C” value [3] was >10 and the IC50 [4] was < 0.1 µM. For the same compound, the “turbidity threshold (L, M, H) 1.4” value [5] was “M (moderate solubility if the threshold concentration is 31.3 μM to 250 μM)”, the “turbidity threshold (L, M, H) 4.5” value [5] was “L (low solubility if the threshold concentration is <31.3 μM)” and the “turbidity threshold (L, M, H) 6.8” value [5] was “L (low solubility if the threshold concentration is <31.3 μM)”. For the same compound, the “turbidity threshold (L, M, H) 7.4” value [5] was “L (low solubility if the threshold concentration is <31.3 μM)”, the IC50 ([6]; human, 15 min) was > 10 µM and the IC50 [7] was 5 to 10 µM. For the same compound, the IC50 [8, 12] was > 10 µM, the IC50 [9] was > 10 µM and the IC50 [10] was < 5 µM. For the same compound, the IC50 [11] was > 10 µM.
